Calls of active or inactive are those of the source. No rule for the calls is given here.
System: IMR-90 human lung fibroblast viability counter screen
Experiment: IMR-90 fibroblast viability reduction, dose response, cytotoxicity control, cell-based, IC50 (AID 449725);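 also: 48 hour compound exposure before the viability read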

Row | SMILES | IC50
1 | O=C(Nc1cc(Cl)ccc1C(=O)O)c1ccc(Cc2ccccc2)cc1 | > 25 µM (inactive)
2 | CN(C)S(=O)(=O)c1cccc(-n2sc3ccccc3c2=O)c1 | 12.8 µM
3 | COc1ccc(C(=O)O)c(NC(=O)c2ccc(Cl)cc2)c1 | > 25 µM (inactive)
4 | O=C(Cn1sc2ccccc2c1=O)Nc1ccccc1Cl | > 25 µM (inactive)
5 | CC(C)(C)c1ccc(C(=O)Nc2cc(Cl)ccc2C(=O)O)cc1 | > 25 µM (inactive)
6 | COc1cccc(CC(=O)Nc2cc(Cl)ccc2C(=O)O)c1 | > 25 µM (inactive)
7 | CC(C)(C)c1ccc(C(=O)Nc2cc(Cl)ccc2O)cc1 | > 25 µM (inactive)
8 | CCOc1ccc(C(=O)Nc2cc(Cl)ccc2C(=O)O)cc1 | > 25 µM (inactive)
9 | COc1ccc(C(=O)N2CCC(=O)c3ccc(Cl)cc32)cc1 | > 25 µM (inactive)
10 | COc1ccc(C(=O)Nc2cc(Cl)ccc2C(=O)O)cn1 | > 25 µM (inactive)
11 | O=c1c2c(Br)cccc2sn1-c1ccccc1 | > 25 µM (inactive)
12 | O=C(Cn1sc2ccccc2c1=O)N1CCCCC1 | 16.5 µM
13 | COC(=O)c1cc(Cl)ccc1NC(=O)c1ccc(OC)cc1 | > 25 µM (inactive)
14 | COc1ccc(C(=O)Nc2ccccc2C(=O)O)cc1Cl | > 25 µM (inactive)
15 | COc1cccc(NC(=O)Cn2sc3ccccc3c2=O)c1 | 8.77 µM
16 | O=C(Cn1sc2cc(F)ccc2c1=O)Nc1ccccc1 | 14.8 µM
17 | COc1ccc(NC(=O)Cn2sc3ccccc3c2=O)cc1 | 6.49 µM
18 | O=C(Cn1sc2ccccc2c1=O)Nc1ccccc1 | 6.93 µM
19 | O=C(Cn1sc2ccccc2c1=O)Nc1ccc(F)cc1 | 6.87 µM
20 | CC(C)(C)c1ccc(C(=O)Nc2c(C(=O)O)ccc(Cl)c2Cl)cc1 | > 25 µM (inactive)
21 | O=C1c2ccccc2S(=O)N1c1cccc(F)c1 (stereo not drawn) | > 25 µM (inactive)
22 | O=c1c2ccc(F)cc2sn1Cc1ccccc1 | > 25 µM (inactive)
23 | O=C(Cn1sc2ccccc2c1=O)NC1CCCCC1 | 12.8 µM
24 | N#Cc1ccc2c(=O)n(-c3ccccc3)sc2c1 | > 25 µM (inactive)

Row | SMILES | IC50
25 | COc1ccc(C(=O)NC(CC(=O)O)c2cccc(Cl)c2)cc1 (stereo not drawn) | > 25 µM (inactive)
26 | O=C(Nc1ccccc1)n1sc2ccccc2c1=O | 1.66 µM
27 | COc1ccccc1-n1sc2ccccc2c1=O | 6.29 µM
28 | COc1ccc(C(=O)Nc2cc(Cl)ccc2-c2noc(=O)[nH]2)cc1 | > 25 µM (inactive)
29 | COc1ccc(C(=O)Nc2cc(I)ccc2C(=O)O)cc1 | > 25 µM (inactive)
30 | COc1ccc(C(=O)Nc2cc(-c3ccccc3)ccc2C(=O)O)cc1 | > 25 µM (inactive)
31 | CCCCCC(=O)Nc1cc(Cl)ccc1C(=O)O | > 25 µM (inactive)
32 | COc1ccc(NC(=O)c2ccccc2SCc2ccccc2)cc1 | > 25 µM (inactive)
33 | COc1ccc(C(=O)Nc2cc(Cl)ccc2S(N)(=O)=O)cc1 | > 25 µM (inactive)
34 | COc1ccc(C(=O)Nc2cc(Cl)ccc2C(=O)O)cc1 | > 25 µM (inactive)
35 | O=c1c2ccc([N+](=O)[O-])cc2sn1-c1ccccc1 | 20.7 µM
36 | O=c1c2ccccc2sn1-c1ccccc1Cl | 4.81 µM
37 | CC(C)c1ccc(C(=O)Nc2cc(Cl)ccc2C(=O)O)cc1 | > 25 µM (inactive)
38 | Cc1ccc(-n2sc3cc(F)ccc3c2=O)c(C)c1 | 6.4 µM
39 | O=C1c2cc(Br)ccc2S(=O)N1c1ccccc1 (stereo not drawn) | > 25 µM (inactive)
40 | COC(=O)c1ccc(Cl)cc1NC(=O)c1ccccc1OC | > 25 µM (inactive)
41 | COc1ccc(C(=O)Nc2cc(Cl)ccc2[N+](=O)[O-])cc1 | > 25 µM (inactive)
42 | COc1ccc(C(=O)NC(C(=O)O)c2ccccc2)cc1 (stereo not drawn) | > 25 µM (inactive)
43 | Cc1cc(C(C#N)c2ccc(Cl)cc2)c(Cl)cc1NC(=O)c1cc(I)cc(I)c1O (stereo not drawn) | > 25 µM (inactive)
44 | COc1ccc(NC(=O)Nc2ccccc2C(=O)O)cc1 | > 25 µM (inactive)
45 | COc1ccc(C(=O)Nc2ccc(Cl)cc2C(=O)O)cc1 | > 25 µM (inactive)
46 | CC(=O)Nc1ccc2c(=O)n(-c3ccccc3)sc2c1 | > 25 µM (inactive)
47 | O=c1c2cc(N3CCOCC3)ccc2sn1-c1ccccc1 | 20.9 µM
48 | COc1ccc(C(=O)Nc2cc(C)ccc2C(=O)O)cc1 | > 25 µM (inactive)

Row | SMILES | IC50
49 | CC(C)(C)c1ccc(C(=O)Nc2cc(Cl)c(F)cc2C(=O)O)cc1 | > 25 µM (inactive)
50 | COc1ccc(C(=O)Nc2ccccc2-c2nn[nH]n2)cc1 | > 25 µM (inactive)
51 | CN(C)c1cccc(NC(=O)Cn2sc3ccccc3c2=O)c1 | > 25 µM (inactive)
52 | O=C(O)c1ccc(Cl)cc1NC(=O)N1CCOCC1 | > 25 µM (inactive)
53 | CC(C)(C)c1ccc(C(=O)Nc2cc(Cl)c(Br)cc2C(=O)O)cc1 | > 25 µM (inactive)
54 | COc1ccc(C(=O)Nc2cccc(Cl)c2)cc1 | > 25 µM (inactive)
55 | O=C(Cn1sc2ccccc2c1=O)Nc1ccccc1I | > 25 µM (inactive)
56 | O=C(Nc1cc(Cl)ccc1C(=O)O)c1ccsc1 | > 25 µM (inactive)
57 | COc1ccc(S(=O)(=O)Nc2cc(Cl)ccc2C(=O)O)cc1 | > 25 µM (inactive)
58 | COc1ccccc1NC(=O)Cn1sc2ccccc2c1=O | 12.3 µM
59 | O=C(O)c1ccc(Cl)cc1NC(=O)C1CCOCC1 | > 25 µM (inactive)
60 | O=C(O)c1ccc(Cl)cc1NC(=O)c1coc2ccccc12 | > 25 µM (inactive)
61 | CC(C(=O)Nc1ccccc1)n1sc2ccccc2c1=O (stereo not drawn) | 16.3 µM
62 | O=C(Nc1cc(Cl)ccc1C(=O)O)c1ccc(OC(F)(F)F)cc1 | > 25 µM (inactive)
63 | O=C(Nc1cc(Cl)ccc1C(=O)O)c1ccc2c(c1)CCCC2 | > 25 µM (inactive)
64 | O=C(NCc1ccccc1)n1sc2ccccc2c1=O | > 25 µM (inactive)
65 | O=c1c2cc(F)ccc2sn1-c1ccc(Cl)cc1 | > 25 µM (inactive)
66 | COC(=O)c1ccc(Cl)cc1NC(=O)c1ccc(Cl)cc1 | > 25 µM (inactive)
67 | N#Cc1ccccc1NC(=O)Cn1sc2ccccc2c1=O | > 25 µM (inactive)
68 | Cc1ccc(NC(=O)Cn2sc3ccccc3c2=O)cc1 | 11 µM
69 | O=C(c1ccccc1)n1sc2ccccc2c1=O | 17 µM
70 | O=c1c2ccccc2sn1-c1ccccc1 | 1.45 µM
71 | O=C(Cn1sc2ccccc2c1=O)Nc1cccc(C(F)(F)F)c1 | > 25 µM (inactive)
72 | COc1ccc(C(=O)Nc2cc(F)cc(F)c2O)cc1 | > 25 µM (inactive)

Row | SMILES | IC50
73 | COc1ccc(-n2sc3ccccc3c2=O)cc1 | 5.54 µM
74 | COc1ccc(C(=O)Nc2cc(C(=O)O)ccc2Cl)cc1 | > 25 µM (inactive)
75 | O=c1s[nH]c2ccccc12 | > 25 µM (inactive)
76 | O=C(Nc1cc(Cl)ccc1C(=O)O)c1ccc(C2CCCC2)cc1 | > 25 µM (inactive)
77 | Cc1ccccc1N1Cc2ccccc2C1=O | > 25 µM (inactive)
78 | O=C(CCn1sc2ccccc2c1=O)Nc1ccccc1 | 9.92 µM
79 | O=c1c2ccc(Br)cc2sn1-c1ccccc1 | > 25 µM (inactive)
80 | COc1cccc(-n2sc3ccccc3c2=O)c1 | 6.34 µM
81 | Cc1ccccc1NC(=O)Cn1sc2ccccc2c1=O | 7.37 µM
82 | COc1ccc2c(=O)n(-c3ccccc3)sc2c1 | > 25 µM (inactive)
83 | COc1ccc(C(=O)Nc2cc(Cl)ccc2C#N)cc1 | > 25 µM (inactive)
84 | CN(Cc1ccccc1)C(=O)Cn1sc2ccccc2c1=O | 15.2 µM
85 | O=C(Cn1sc2ccccc2c1=O)Nc1cccc(I)c1 | > 25 µM (inactive)
86 | O=C(Cn1sc2ccccc2c1=O)Nc1ccccc1F | > 25 µM (inactive)
87 | COc1ccc(-c2cc3ccccc3[nH]2)cc1 | > 25 µM (inactive)
88 | OB1OCc2cc(C(F)(F)F)ccc21 | > 25 µM (inactive)
89 | CCC(C)(C)c1ccc(C(=O)Nc2cc(Cl)ccc2C(=O)O)cc1 | > 25 µM (inactive)
90 | COc1ccc(NC(=O)c2ccc(Cl)cc2C(=O)O)cc1 | > 25 µM (inactive)
91 | O=c1c2ccccc2sn1-c1ccccc1F | 5.4 µM
92 | CC(C)(C)c1ccc(C(=O)Nc2cc(Cl)ccc2-c2nn[nH]n2)cc1 | > 25 µM (inactive)
93 | Cn1sc(=O)c2ccccc21 | 18 µM
94 | CC(C)(C)c1ccc(C(=O)N2CCC(=O)c3ccc(Cl)cc32)cc1 | > 25 µM (inactive)
95 | O=c1c(O)c(-c2ccc(O)c(O)c2)oc2cc(O)cc(O)c12 | > 25 µM (inactive)
96 | COc1ccc(NC(=O)c2ccccc2C(=O)O)cc1 | > 25 µM (inactive)

Row | SMILES | IC50
97 | O=C1c2ccccc2S(=O)N1c1ccc(Cl)cc1 (stereo not drawn) | > 25 µM (inactive)
98 | O=C(Cn1sc2ccccc2c1=O)Nc1ccc(I)cc1 | > 25 µM (inactive)
99 | O=C(Cn1sc2ccccc2c1=O)N1CCOCC1 | > 25 µM (inactive)
100 | O=C(Nc1cc(Cl)ccc1C(=O)O)c1ccc(I)cc1 | > 25 µM (inactive)
101 | CC(C)(C)c1ccc(C(=O)Nc2cc(Br)ccc2C(=O)O)cc1 | > 25 µM (inactive)
102 | CC1(c2ccc(C(=O)Nc3cc(Cl)ccc3C(=O)O)cc2)CC1 | > 25 µM (inactive)
103 | O=c1c2cc(F)ccc2sn1-c1ccccc1Cl | 6.16 µM
104 | COc1ccc(C(=O)Nc2cc(C(F)(F)F)ccc2C(=O)O)cc1 | > 25 µM (inactive)
105 | O=C(Nc1ccccc1)c1cc(F)ccc1S | > 25 µM (inactive)
106 | O=C(Nc1cc(Cl)ccc1C(=O)O)c1ccc(C2CCC2)cc1 | > 25 µM (inactive)
107 | COc1ccc(C(=O)Nc2cc(Cl)ccc2C(N)=O)cc1 | > 25 µM (inactive)
108 | O=C(Cn1sc2ccccc2c1=O)Nc1ccc(Cl)cc1 | > 25 µM (inactive)
109 | COc1ccc(C(=O)Nc2c(C(=O)O)ccc(Cl)c2Cl)cc1 | > 25 µM (inactive)
110 | COc1ccc(C(=O)Nc2cc(F)ccc2C(=O)O)cc1 | > 25 µM (inactive)
111 | COc1ccc(Nc2cc(Cl)ccc2C(=O)O)cc1 | > 25 µM (inactive)
112 | O=C(Cn1sc2ccccc2c1=O)Nc1ccc(Br)cc1 | > 25 µM (inactive)
113 | O=c1c2cc([N+](=O)[O-])ccc2sn1-c1ccccc1 | 10.2 µM
114 | O=C1c2cccc(Br)c2SCN1c1ccccc1 | > 25 µM (inactive)
115 | Cc1ccc(-n2sc3ccccc3c2=O)cc1 | 18.3 µM
116 | CN(C)c1ccc(C(=O)Nc2cc(Cl)ccc2C(=O)O)cc1 | > 25 µM (inactive)
117 | O=C(Cn1sc2ccccc2c1=O)Nc1ccccc1Br | > 25 µM (inactive)
118 | CCCCCCC(=O)Nc1cc(Cl)ccc1C(=O)O | > 25 µM (inactive)

Source: PubChem BioAssay AID449725 (University of Pittsburgh Molecular Library Screening Center, 2010)
